ChEMBL document CHEMBL3085738, “Synthesis, structure-activity relationship and biological evaluation of 2,4,5-trisubstituted pyrimidine CDK inhibitors as potential anti-tumour agents” (Eur J Med Chem, 2013)
The source made the active and inactive calls. No cut-off for these calls is given here.

How the values were obtained:
[1] = target: Cyclin-dependent kinase 1/cyclin B1 (Homo sapiens, UniProt P06493); test: Inhibition of CDK1/Cyclin B (unknown origin) by radiometric assay; assay type: protein-complex assay; settings: read-out: Ki(app)
Sequence of Cyclin-dependent kinase 1/cyclin B1 (P06493 whole entry): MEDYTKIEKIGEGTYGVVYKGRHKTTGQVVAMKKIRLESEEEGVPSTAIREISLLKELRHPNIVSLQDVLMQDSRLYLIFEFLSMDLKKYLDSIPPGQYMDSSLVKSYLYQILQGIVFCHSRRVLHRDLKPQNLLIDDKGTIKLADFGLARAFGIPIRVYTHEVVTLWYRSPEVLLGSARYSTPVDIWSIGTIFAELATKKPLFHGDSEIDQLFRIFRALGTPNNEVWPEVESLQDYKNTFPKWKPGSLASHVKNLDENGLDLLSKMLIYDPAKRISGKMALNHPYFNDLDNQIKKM
Sequence of Cyclin-dependent kinase 1/cyclin B1 (P14635 whole entry, further chain): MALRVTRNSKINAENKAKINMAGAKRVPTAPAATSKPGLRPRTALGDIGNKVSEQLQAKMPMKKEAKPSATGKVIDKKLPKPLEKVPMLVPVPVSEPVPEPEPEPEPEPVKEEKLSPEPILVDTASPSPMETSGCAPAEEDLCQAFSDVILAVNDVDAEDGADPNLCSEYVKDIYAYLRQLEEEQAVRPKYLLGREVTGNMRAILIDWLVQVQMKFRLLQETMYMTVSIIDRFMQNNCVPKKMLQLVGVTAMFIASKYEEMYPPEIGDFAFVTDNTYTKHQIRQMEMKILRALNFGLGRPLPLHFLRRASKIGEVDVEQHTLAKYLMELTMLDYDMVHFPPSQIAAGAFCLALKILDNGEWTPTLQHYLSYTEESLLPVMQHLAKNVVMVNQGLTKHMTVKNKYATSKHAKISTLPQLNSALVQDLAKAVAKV

[2] = target: Cyclin-dependent kinase 7/ cyclin H (Homo sapiens, UniProt P50613); test: Inhibition of CDK7/Cyclin H (unknown origin) by radiometric assay; assay type: protein-complex assay; settings: read-out: Ki(app)
Sequence of Cyclin-dependent kinase 7/ cyclin H (P51946 whole entry): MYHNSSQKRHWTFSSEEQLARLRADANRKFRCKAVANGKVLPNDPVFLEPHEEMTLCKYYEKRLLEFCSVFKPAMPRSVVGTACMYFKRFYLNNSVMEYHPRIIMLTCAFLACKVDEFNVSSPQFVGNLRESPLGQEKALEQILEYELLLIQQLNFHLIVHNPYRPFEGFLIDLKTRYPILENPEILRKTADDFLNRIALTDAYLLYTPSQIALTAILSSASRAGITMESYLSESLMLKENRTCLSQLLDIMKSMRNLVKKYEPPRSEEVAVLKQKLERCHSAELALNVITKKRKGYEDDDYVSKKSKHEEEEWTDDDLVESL
Sequence of Cyclin-dependent kinase 7/ cyclin H (P50613 whole entry): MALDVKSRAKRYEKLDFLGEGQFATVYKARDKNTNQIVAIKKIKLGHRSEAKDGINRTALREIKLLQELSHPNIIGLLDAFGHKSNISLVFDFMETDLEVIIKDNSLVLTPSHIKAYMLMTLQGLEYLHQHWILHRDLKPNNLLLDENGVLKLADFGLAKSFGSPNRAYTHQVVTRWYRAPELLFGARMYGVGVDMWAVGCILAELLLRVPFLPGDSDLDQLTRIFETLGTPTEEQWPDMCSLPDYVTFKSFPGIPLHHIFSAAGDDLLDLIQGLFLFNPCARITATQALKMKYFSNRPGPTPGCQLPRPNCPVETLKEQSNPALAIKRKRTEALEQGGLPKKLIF

CDK2/Cyclin A2 = CDK2/Cyclin A2 (Homo sapiens, UniProt P24941); test: Inhibition of CDK2/Cyclin A (unknown origin) by radiometric assay; assay type: protein-complex assay; settings: read-out: Ki(app)
CDK9/cyclin T1 = CDK9/cyclin T1 (Homo sapiens, UniProt P50750); test: Inhibition of CDK9/Cyclin T1 (unknown origin) by radiometric assay; assay type: protein-complex assay; settings: read-out: Ki(app)
Sequence of CDK9/cyclin T1 (O60563 whole entry): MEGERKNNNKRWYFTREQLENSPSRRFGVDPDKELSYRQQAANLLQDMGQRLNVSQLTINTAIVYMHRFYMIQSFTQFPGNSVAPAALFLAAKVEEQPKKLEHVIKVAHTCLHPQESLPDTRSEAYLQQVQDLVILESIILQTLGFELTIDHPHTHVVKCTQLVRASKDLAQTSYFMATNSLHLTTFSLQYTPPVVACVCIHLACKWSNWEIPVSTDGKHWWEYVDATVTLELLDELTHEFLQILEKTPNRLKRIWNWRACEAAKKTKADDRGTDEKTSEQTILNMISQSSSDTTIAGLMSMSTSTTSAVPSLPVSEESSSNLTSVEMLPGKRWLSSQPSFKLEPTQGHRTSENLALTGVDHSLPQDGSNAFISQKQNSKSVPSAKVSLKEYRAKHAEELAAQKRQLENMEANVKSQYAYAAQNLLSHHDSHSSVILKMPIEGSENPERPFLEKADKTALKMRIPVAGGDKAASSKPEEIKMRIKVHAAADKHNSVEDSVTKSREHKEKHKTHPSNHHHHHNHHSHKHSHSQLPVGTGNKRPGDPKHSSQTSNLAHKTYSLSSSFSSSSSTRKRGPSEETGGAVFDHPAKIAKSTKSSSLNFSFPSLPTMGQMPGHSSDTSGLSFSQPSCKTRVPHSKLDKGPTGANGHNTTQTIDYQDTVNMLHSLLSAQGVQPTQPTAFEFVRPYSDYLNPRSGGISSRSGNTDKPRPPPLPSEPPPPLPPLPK
Sequence of CDK9/cyclin T1 (P50750 whole entry): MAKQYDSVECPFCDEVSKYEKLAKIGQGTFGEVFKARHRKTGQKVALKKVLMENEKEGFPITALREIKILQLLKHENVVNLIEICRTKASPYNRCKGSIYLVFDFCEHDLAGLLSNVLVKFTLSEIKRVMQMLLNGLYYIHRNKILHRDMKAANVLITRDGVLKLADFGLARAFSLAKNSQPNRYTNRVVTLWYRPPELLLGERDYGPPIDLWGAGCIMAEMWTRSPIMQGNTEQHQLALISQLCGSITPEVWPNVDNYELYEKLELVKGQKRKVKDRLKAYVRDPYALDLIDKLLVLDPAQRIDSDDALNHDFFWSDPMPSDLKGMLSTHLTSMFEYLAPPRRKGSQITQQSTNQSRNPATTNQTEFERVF

HCT-116 = test: Growth inhibition of human HCT116 cells after 48 hrs by MTT assay; assay type: functional; settings: HCT-116, 48 h
MCF7 = test: Growth inhibition of human MCF7 cells after 48 hrs by MTT assay; assay type: functional; settings: MCF7, 48 h
[3] = target: Cyclin-dependent kinase 9 (Homo sapiens) (UniProt P50750); test: Inhibition of CDK9 in human HCT116 cells assessed as downregulation of Mcl-1 protein expression at 1 to 5 uM after 24 hrs by Western blot analysis; assay type: cell-based; settings: HCT-116
Sequence of Cyclin-dependent kinase 9 (Homo sapiens) (P50750 whole entry): as above

[4] = target: Cyclin-dependent kinase 9 (Homo sapiens) (UniProt P50750); test: Inhibition of CDK9 in human HCT116 cells assessed as decrease in RNAP2 CTD phosphorylation at Ser2 at 1 to 5 uM after 24 hrs by Western blot analysis; assay type: cell-based; settings: HCT-116
[5] = target: Cyclin-dependent kinase 9 (Homo sapiens) (UniProt P50750); test: Inhibition of CDK9 in human HCT116 cells assessed as decrease in RNAP2 CTD phosphorylation at Ser5 at 10 uM after 24 hrs by Western blot analysis; assay type: cell-based; settings: HCT-116
Homo sapiens = species on record: Homo sapiens; test: Selectivity ratio of Ki(app) for CDK7/Cyclin H (unknown origin) to Ki(app) for CDK9/Cyclin T1 (unknown origin)

Structure (SMILES)	Ki [1] [nM]	Ki [2] [nM]	Ki (CDK2/Cyclin A2) [nM]	Ki (CDK9/cyclin T1) [nM]	GI50 (HCT-116) [nM]	GI50 (MCF7) [nM]	inhibition [3]	inhibition [4]	inhibition [5]	Ratio Ki(app) (Homo sapiens)
CNc1nc(C)c(-c2nc(Nc3ccc(C)c(S(=O)(=O)N4CCOCC4)c3)ncc2F)s1	101	133	130	11						
CNc1nc(C)c(-c2nc(Nc3cccc(N4CCN(C)CC4)c3)ncc2F)s1	32	541	41	7						
CNc1nc(C)c(-c2nc(Nc3cc(C(=O)N4CCN(C)CC4)ccc3Cl)ncc2C#N)s1	> 5000	> 5000	> 5000	715						
CNc1nc(C)c(-c2nc(Nc3cccc(S(=O)(=O)N4CCN(C)CC4)c3)ncc2C#N)s1	576	24	584	35						
CNc1nc(C)c(-c2ccnc(Nc3cccc(C(=O)N4CCOCC4)c3)n2)s1	261	393	485	95	520	550				
CNc1nc(C)c(-c2nc(Nc3cccc(C(=O)NC4CCN(C)CC4)c3)ncc2C#N)s1	262	163	316	14			Active	Active	Active	
CNc1nc(C)c(-c2nc(Nc3cccc(S(=O)(=O)NCCOC)c3)ncc2C#N)s1	34	180	22	16						
CNc1nc(C)c(-c2nc(Nc3cccc(C(=O)N4CCN(C)CC4)c3)ncc2C#N)s1	313	840	164	19	720	1380				
CNc1nc(C)c(-c2nc(Nc3cccc(C(=O)N4CCN(C(C)=O)CC4)c3)ncc2C#N)s1	166	552	134	17						
CC(=O)N1CCN(c2cccc(Nc3ncc(F)c(-c4sc(N)nc4C)n3)c2)CC1	41	1460	77	11						
CNc1nc(C)c(-c2nc(Nc3cccc(S(C)(=O)=O)c3)ncc2C#N)s1	19	110	43	5						
CNc1nc(C)c(-c2nc(Nc3cccc(C(=O)NC4CCN(C)CC4)c3)ncc2F)s1	64	542	231	36						
Cc1nc(N)sc1-c1nc(Nc2cccc(N3CCN(C)CC3)c2)ncc1F	65	476	68	11						
CNc1nc(C)c(-c2ccnc(Nc3ccc(C)c(S(=O)(=O)N4CCOCC4)c3)n2)s1	357	150	294	27	940	1610				
CNc1nc(C)c(-c2nc(Nc3ccc(C(=O)NC4CCN(C)CC4)cc3)ncc2C#N)s1	43	304	32	8						
CNc1nc(C)c(-c2nc(Nc3cccc(S(=O)(=O)N4CCOCC4)c3)ncc2C#N)s1	73	893	55	14						
CNc1nc(C)c(-c2nc(Nc3cccc(C(=O)N4CCOCC4)c3)ncc2C#N)s1	205	1870	199		590	820				43
Cc1nc(N)sc1-c1nc(Nc2cccc(S(N)(=O)=O)c2)ncc1F		252								
CNc1nc(C)c(-c2nc(Nc3cccc(S(=O)(=O)NCCOC)c3)ncc2F)s1	10	30	6	3						
